Remaining binding data for three molecules are collected here from paper PMC6437697 (Journal of Medicinal Chemistry, 2019).

Holding throughout (assay): KINOMEscan
Holding throughout (assay type): binding
Common to all, as to details: read-out: % control activity remaining

The target of test [1] is T1, ROCK1 (Homo sapiens, UniProt Q13464).
T1 construct: purchased Eurofins DiscoverX KINOMEscan

Test [2] deals with T2, TAOK1 (Homo sapiens, UniProt Q7L7X3).
T2 construct: purchased Eurofins DiscoverX KINOMEscan
T2 sequence (Q7L7X3 1-1001): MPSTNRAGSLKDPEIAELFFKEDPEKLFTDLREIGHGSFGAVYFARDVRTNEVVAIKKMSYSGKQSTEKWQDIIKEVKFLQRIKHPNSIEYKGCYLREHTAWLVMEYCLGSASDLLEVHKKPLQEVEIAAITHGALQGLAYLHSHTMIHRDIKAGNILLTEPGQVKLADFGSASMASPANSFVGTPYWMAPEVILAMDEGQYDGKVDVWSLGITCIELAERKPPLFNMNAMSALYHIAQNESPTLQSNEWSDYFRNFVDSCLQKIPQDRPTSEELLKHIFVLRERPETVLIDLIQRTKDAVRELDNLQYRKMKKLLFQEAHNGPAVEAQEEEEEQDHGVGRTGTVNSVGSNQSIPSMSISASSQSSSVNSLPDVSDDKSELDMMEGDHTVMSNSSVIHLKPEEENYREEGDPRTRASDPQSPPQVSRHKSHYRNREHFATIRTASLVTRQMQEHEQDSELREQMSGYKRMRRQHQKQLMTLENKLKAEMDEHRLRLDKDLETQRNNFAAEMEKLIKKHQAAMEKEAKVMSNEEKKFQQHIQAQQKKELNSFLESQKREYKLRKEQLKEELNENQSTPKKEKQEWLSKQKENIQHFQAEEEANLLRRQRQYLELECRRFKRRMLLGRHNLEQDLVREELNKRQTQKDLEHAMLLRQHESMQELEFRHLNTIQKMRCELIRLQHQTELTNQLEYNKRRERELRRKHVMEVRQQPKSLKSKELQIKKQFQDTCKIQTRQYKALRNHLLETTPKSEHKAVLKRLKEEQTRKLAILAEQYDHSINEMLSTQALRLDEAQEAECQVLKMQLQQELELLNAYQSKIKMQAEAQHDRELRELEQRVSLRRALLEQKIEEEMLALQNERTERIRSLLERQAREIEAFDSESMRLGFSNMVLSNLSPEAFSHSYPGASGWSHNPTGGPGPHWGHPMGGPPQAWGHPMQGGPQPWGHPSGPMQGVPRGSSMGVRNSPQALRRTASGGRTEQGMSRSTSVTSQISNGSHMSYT

Test [3] concerns the target T3, YANK1 (Homo sapiens, UniProt Q8WU08).
T3 construct: purchased Eurofins DiscoverX KINOMEscan

Test [4] addresses T4, IRAK3 (Homo sapiens, UniProt Q9Y616).
T4 construct: purchased Eurofins DiscoverX KINOMEscan
T4 sequence (Q9Y616 1-596): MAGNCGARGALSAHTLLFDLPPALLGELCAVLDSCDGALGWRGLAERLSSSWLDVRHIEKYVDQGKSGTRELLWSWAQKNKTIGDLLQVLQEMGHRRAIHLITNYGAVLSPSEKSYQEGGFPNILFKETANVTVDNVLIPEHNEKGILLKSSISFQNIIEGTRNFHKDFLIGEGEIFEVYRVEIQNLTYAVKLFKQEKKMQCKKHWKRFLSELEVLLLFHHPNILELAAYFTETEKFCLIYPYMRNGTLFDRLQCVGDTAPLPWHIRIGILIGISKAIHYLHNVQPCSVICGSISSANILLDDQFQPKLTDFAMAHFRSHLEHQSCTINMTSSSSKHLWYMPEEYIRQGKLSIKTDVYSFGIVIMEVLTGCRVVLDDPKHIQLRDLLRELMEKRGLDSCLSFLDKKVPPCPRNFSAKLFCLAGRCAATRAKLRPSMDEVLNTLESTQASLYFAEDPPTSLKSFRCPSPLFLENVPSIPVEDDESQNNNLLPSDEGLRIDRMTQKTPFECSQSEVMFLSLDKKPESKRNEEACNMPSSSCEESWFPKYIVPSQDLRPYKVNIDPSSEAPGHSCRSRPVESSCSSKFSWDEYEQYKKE

For test [5], the target named is T5, NEK4 (Homo sapiens, UniProt P51957).
T5 construct: purchased Eurofins DiscoverX KINOMEscan

The target in test [6] is T6, BMPR1B (Homo sapiens, UniProt O00238).
T6 construct: purchased Eurofins DiscoverX KINOMEscan
T6 sequence (O00238 14-502): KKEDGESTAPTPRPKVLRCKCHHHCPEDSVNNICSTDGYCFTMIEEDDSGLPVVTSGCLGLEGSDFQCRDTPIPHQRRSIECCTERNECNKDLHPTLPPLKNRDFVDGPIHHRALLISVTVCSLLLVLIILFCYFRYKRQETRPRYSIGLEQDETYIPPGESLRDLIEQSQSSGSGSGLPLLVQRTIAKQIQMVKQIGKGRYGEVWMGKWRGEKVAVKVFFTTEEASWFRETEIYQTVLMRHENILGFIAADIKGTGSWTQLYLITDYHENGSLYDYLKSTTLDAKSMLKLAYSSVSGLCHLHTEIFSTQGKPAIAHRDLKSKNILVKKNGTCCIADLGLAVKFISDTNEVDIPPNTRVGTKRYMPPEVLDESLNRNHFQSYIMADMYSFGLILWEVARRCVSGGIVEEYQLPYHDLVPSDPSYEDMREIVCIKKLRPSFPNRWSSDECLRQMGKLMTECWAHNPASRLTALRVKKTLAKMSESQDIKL

For test [7], the target named is T7, PRP4 (Homo sapiens, UniProt Q13523).
T7 construct: purchased Eurofins DiscoverX KINOMEscan
T7 sequence (Q13523 whole entry): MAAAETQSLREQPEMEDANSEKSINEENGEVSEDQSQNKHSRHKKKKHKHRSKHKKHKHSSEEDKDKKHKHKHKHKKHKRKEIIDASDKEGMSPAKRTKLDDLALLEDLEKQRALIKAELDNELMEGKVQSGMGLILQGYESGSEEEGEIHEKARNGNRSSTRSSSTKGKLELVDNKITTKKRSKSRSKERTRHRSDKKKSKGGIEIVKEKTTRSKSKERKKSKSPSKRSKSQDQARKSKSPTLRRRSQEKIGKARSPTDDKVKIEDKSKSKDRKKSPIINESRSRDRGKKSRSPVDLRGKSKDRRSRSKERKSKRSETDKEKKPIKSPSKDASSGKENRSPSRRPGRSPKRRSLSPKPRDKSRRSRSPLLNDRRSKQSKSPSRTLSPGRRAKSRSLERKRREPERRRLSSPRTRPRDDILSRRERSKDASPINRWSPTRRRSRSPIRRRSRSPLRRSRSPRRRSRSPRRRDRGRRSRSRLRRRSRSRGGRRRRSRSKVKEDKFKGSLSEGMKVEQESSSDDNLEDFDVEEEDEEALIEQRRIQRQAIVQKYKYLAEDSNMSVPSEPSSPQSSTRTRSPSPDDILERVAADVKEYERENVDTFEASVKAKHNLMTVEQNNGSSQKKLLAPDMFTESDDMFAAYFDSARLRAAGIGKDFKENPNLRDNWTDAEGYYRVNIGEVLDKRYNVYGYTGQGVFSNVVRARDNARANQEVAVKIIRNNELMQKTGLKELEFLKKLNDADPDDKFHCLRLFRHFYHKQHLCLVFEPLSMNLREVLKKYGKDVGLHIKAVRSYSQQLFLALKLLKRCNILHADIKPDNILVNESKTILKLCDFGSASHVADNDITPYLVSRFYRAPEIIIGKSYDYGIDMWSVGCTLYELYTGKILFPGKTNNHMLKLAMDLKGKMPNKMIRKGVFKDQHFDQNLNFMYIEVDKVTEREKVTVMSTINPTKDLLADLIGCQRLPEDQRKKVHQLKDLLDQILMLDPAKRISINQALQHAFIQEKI

Test [8] concerns the target T8, MLK1 (Homo sapiens, UniProt P80192).
T8 construct: purchased Eurofins DiscoverX KINOMEscan

Test [9] has as its target T9, HIPK4 (Homo sapiens, UniProt Q8NE63).
T9 construct: purchased Eurofins DiscoverX KINOMEscan
T9 sequence (Q8NE63 1-616): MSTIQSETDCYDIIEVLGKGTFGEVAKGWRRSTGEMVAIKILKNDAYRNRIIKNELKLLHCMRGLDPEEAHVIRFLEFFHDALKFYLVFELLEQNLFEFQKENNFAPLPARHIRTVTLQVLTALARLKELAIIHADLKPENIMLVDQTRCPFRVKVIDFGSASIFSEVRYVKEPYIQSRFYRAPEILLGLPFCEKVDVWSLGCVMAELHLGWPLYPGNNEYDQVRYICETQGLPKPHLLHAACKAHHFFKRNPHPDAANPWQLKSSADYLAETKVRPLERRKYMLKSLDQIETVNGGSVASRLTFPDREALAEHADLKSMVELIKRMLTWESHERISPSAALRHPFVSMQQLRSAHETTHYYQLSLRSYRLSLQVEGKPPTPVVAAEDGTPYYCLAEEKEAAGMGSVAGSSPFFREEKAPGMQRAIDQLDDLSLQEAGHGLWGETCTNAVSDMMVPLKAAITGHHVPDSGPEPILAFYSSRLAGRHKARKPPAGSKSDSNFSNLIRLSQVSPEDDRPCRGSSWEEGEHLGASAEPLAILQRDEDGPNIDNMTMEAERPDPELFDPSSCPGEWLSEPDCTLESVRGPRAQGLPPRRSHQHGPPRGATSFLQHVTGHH

Test [10] deals with T10, MLK3 (Homo sapiens, UniProt Q16584).
T10 construct: purchased Eurofins DiscoverX KINOMEscan
T10 sequence (Q16584 whole entry): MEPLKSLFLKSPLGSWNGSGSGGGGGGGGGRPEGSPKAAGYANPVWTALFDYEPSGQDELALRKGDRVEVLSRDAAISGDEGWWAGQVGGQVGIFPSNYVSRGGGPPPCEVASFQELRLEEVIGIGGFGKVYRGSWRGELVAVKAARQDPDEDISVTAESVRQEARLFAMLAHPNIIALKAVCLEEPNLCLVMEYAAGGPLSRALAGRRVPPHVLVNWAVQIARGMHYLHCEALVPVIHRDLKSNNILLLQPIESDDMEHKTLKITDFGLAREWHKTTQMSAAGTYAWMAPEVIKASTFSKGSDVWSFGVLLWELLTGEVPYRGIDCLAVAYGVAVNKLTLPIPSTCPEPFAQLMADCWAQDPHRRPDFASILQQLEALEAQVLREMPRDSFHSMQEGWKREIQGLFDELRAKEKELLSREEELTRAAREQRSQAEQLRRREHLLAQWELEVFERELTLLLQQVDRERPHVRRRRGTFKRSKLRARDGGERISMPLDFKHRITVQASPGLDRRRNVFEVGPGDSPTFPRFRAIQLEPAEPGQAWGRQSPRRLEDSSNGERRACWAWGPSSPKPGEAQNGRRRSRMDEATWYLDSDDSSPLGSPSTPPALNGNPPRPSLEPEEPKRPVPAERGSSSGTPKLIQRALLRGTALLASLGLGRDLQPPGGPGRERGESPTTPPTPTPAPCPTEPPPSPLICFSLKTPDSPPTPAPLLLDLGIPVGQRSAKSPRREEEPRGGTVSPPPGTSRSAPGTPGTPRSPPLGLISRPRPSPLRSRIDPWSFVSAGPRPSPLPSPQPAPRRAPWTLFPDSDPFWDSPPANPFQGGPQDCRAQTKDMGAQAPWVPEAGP

For test [11], the target named is T11, LOK (Homo sapiens, UniProt O94804).
T11 construct: purchased Eurofins DiscoverX KINOMEscan
T11 sequence (O94804 whole entry): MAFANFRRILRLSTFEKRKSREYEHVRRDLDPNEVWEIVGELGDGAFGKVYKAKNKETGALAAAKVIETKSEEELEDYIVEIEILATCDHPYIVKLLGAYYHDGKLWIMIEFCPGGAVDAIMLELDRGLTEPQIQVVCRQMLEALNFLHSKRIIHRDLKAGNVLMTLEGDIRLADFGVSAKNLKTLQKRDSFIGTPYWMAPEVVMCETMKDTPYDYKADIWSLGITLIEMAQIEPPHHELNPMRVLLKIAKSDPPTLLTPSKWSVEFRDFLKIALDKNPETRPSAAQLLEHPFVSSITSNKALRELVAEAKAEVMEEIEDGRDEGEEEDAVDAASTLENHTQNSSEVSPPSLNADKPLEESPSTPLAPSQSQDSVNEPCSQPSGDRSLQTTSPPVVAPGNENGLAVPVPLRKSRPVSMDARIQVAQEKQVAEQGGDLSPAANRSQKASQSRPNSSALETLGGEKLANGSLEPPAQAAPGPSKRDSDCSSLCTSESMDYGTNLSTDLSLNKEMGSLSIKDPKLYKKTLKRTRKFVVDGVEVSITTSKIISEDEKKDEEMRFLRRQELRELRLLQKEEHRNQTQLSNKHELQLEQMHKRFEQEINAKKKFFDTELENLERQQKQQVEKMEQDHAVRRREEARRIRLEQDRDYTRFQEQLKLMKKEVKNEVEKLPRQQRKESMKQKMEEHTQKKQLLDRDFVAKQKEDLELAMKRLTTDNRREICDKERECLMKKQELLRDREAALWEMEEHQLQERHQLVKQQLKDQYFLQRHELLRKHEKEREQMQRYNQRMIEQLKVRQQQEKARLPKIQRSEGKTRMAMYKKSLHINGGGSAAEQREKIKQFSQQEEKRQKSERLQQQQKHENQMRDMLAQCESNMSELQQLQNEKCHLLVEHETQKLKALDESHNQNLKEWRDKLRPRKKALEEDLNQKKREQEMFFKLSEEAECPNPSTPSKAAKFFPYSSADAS

T3 sequence (Q8WU08 whole entry): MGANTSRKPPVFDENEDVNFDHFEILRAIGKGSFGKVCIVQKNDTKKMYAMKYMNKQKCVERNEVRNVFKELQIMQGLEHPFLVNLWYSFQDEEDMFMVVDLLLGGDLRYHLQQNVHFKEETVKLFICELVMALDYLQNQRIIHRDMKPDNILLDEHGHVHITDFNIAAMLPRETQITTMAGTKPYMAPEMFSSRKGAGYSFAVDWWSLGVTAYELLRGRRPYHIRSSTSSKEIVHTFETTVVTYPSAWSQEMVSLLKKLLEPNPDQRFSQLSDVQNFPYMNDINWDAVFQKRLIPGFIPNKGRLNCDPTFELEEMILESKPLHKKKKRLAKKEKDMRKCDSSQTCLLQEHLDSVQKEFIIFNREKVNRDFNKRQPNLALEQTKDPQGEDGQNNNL
T1 sequence (Q13464 whole entry): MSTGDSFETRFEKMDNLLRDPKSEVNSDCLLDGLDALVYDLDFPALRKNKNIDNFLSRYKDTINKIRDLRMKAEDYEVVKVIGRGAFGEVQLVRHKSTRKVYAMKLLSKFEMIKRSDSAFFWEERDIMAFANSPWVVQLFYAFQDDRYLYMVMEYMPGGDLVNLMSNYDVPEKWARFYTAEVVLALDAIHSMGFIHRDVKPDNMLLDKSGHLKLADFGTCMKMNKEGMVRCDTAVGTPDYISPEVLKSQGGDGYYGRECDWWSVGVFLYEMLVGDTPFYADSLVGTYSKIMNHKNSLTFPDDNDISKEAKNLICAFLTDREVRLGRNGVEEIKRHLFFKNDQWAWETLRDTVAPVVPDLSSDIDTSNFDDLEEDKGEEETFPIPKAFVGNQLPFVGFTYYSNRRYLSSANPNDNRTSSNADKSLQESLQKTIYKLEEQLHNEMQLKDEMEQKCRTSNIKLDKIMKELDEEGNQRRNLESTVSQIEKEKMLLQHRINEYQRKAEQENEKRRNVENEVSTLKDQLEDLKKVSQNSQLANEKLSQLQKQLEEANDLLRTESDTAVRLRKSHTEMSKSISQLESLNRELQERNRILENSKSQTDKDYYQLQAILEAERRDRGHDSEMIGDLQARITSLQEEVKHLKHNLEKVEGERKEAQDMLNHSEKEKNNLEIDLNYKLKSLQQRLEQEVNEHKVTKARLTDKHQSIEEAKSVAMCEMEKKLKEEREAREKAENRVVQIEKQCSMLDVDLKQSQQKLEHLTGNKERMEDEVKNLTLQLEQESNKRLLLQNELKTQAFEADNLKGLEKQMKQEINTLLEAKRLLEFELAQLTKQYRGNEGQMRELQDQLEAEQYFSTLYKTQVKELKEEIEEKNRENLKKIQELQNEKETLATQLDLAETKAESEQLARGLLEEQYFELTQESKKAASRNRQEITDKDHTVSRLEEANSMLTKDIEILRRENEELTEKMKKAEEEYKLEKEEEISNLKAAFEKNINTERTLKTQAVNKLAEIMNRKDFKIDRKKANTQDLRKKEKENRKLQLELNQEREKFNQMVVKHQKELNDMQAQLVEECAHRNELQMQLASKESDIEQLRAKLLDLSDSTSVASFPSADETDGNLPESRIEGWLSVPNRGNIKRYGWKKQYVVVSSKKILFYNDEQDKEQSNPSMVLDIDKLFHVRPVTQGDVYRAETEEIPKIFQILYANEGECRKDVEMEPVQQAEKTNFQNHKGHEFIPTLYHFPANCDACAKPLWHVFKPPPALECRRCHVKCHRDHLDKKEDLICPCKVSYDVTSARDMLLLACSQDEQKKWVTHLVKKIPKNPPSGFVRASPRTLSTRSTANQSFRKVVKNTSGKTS

As for `Clc1cc(NCC2CC2)c2ncc(-c3ccc4[nH]ncc4c3)n2n1` [compound 2, 6-Chloro-N-(cyclopropylmethyl)-3-(1H-indazol-5-yl)imidazo[1,2-b]pyridazin-8-amine], the remaining binding at 1 µM in test [1] amounted to 36%; in test [2] it was 93%; in [3] it was 95%; in test [4] it was 100%; in test [5], 99%; in test [6], 100%. Besides, the remaining binding at 1 µM in [7] came out at 60%; in [8], 85%; in test [9], 8.6%; in [10], 100%; in test [11] it was 100%.

As to `O=C(CN1CCOCC1)N[C@H]1CC[C@H](Nc2cc(Cl)nn3c(-c4ccc5[nH]ncc5c4)cnc23)CC1` [compound 26], the remaining binding at 1 µM in test [1] was 22%; in test [2] it was 85%; in test [3], 98%; in test [4] it was 49%; in test [5], 100%; in test [6] it was 100%. The remaining binding at 1 µM stood at 97% in test [7]; 100% in test [8]; 5.1% in test [9]; 100% in test [10]; 100% in [11].

`CN1CCC(CNc2cc(Cl)nn3c(-c4cc5nc(Nc6ccccc6)[nH]c5cc4F)cnc23)CC1` [compound 31, 6-Chloro-3-(6-fluoro-2-(phenylamino)-1H-benzo[d]imidazol-5-yl)-N-((1-methylpiperidin-4-yl)methyl)imidazo[1,2-b]pyridazin-8-amine]: the remaining binding at 1 µM in [1] came to 76%; in test [2], 75%; in test [3], 73%; in test [4], 95%; in [5] it was 95%; in test [6], 67%. For the same molecule, the remaining binding at 1 µM in test [7] was found to be 93%; in test [8], 93%; in test [9], 71%; in test [10], 81%; in [11], 91%.
